In patent US12663425B2, “Delta-2-tubulin as a biomarker and therapeutic target for peripheral neuropathy” (THE TRUSTEES OF COLUMBIA UNIVERSITY IN THE CITY OF NEW YORK, priority 2017, dated 2026):

Columns and labels:
[1] = Dynamic test, plantar test and electrophysiological tests in rats chronically treated with bortezomib; type: in vivo, female Wistar rats; details: chronic: 0.2 mg/kg, three times per week, 8 weeks
Description: FIG. 1A-1D. Chronic doses of bortezomib affect animal behavior and nerve function. (A) Hind-paw withdrawal response to mechanical stimulus (10-50 g). (B) Plantar withdrawal latency response to heat source (infra-red light). Dynamic and plantar tests were performed before (baseline value), after 4-week and at the end point of treatment with Bortezomib. Data are expressed as mean values±SD, n animals=12. (C, D) Caudal and digital nerve conduction velocity (NCV) and amplitude measured in rats treated chronically with Bortezomib. n=8-10 per group; *p<0.05 compared to control.
To determine the effects of bortezomib on the post-translation modifications of tubulin, female Wistar rats were treated with single or multiple administrations pf bortezomib (5 rats for each treatment). Acute treatment included a single intravenous administration of bortezomib at a concentration of 0.2 mg/kg. Chronically treated rats were treated with bortezomib for a total of 8 weeks, with administration of bortezomib three times per week at a concentration of 0.2 mg/kg. […] Certain post-translation modifications of α-tubulin, e.g., acetylation, are reduced in dorsal root ganglions neurons (DRGs) and sural nerves (SNs) from rats chronically treated with bortezomib (FIG. 2) and in rats acutely treated with bortezomib (FIG. 3).

[2] = system: delta-2-tubulin; assay: Quantitative immunofluorescence of tubulin post-translational modifications in DRG and sural nerve of treated rats; type: in vivo, female Wistar rats
Description: FIG. 2. Immunofluorescence analysis of selected α-tubulin post-translational modifications in neuronal tissue from chronically treated rats. Relative tubulin post-translational modifications levels measured by quantitative immunofluorescence in randomly selected dorsal root ganglion cell bodies (DRG) and sural nerve (SN) from rats (4 per group) treated with chronic (0.2 mg/kg, 3× week for 8 weeks) doses of Bortezomib. Data are mean values±SEM. ****, p≤0.0001; ***, p≤0.001; **, p≤0.01; *, p≤0.05 by ANOVA (in red,) or unpaired, two-tailed t-test (in black).
FIG. 3A-3C. […] (A) Representative immunofluorescence staining of DRG isolated from rats acutely treated with Bortezomib. (B) Relative tubulin post-translational modifications levels measured by quantitative immunofluorescence in randomly selected DRG and SN from rats (4 per group) treated with acute (i.v. 0.2 mg/kg; 24 hr) doses of Bortezomib. Data are mean values±SEM, ****, p≤0.0001; ***, p≤0.001; **, p≤0.01; *, p≤0.05 by ANOVA (A in red,) or unpaired, two-tailed t-test (A in black). (C) Schematic of the enzymes involved in D2 generation.
FIG. 13A-13E. […] (A) Immunofluorescence staining of Peripherin (smaller unmyelinated C-fibers) or (B) NF200 (large myelinated A-β fibers)(C) TrkC (proprioceptive)(D) TrkA (nociceptive) in DRG L4-L5 dissected from rats treated with Bortezomib for 24 hr. (E) Correlation between peripherin, NF200, TrkC, TrkA and D2 intensity values in randomly selected DRG cell bodies was calculated by using Pearson coefficient (r). Scale bar, 50 μm.
To determine the effects of bortezomib on the post-translation modifications of tubulin, female Wistar rats were treated with single or multiple administrations pf bortezomib (5 rats for each treatment). Acute treatment included a single intravenous administration of bortezomib at a concentration of 0.2 mg/kg. Chronically treated rats were treated with bortezomib for a total of 8 weeks, with administration of bortezomib three times per week at a concentration of 0.2 mg/kg.
To determine the effect of bortezomib on tubulin expression, DRGs were analyzed for delta-2-tubulin expression. […] Further analysis of other unrelated chemotherapy-induced peripheral neuropathy (CIPN) drugs was performed to determine their effect on delta-2-tubulin expression levels. […] Additional experiments were performed to determine whether DRGs with different sensory modalities and diameters are preferentially affected by bortezomib treatment.

[3] = system: delta-2-tubulin; assay: Delta-2-tubulin in sural nerve biopsy of CIPN patients (immunofluorescence, immunoblot); type: in vivo; details: CIPN patients (FIG. 5)
Excerpt: FIG. 5A-5C. Bortezomib induces delta-2-tubulin in CIPN patients. (A) Representative immunofluorescence staining of SN isolated from a patient affected by CIPN. (B) Ratio analysis of D2/βIII-tubulin levels measured by immunofluorescence of fixed tissue from one SN biopsy. Data are mean values from 3 sections±SEM, ****, p<0.0001 by t-test (unpaired, two-tailed). (C) Immunoblot of D2 levels in whole cell lysates from one SN biopsy. Tyr, tyrosinated tubulin.
(§1) Peripheral neurons from patients suffering from CIPN were analyzed for delta-2-tubulin expression. […] In addition.

[4] = system: delta-2-tubulin; assay: Delta-2-tubulin levels in cultured neurons (western blot, immunofluorescence); type: cell-based; details: for delta-2-tubulin expression: cultured hippocampal and DRG neurons (FIG. 6)
Description: FIG. 6. Bortezomib induces delta-2-tubulin in DRG neurons as shown by western blot analysis of delta-2-tubulin levels from whole cell lysates of adult DRG neurons treated with Bortezomib and immunofluorescence of delta-2-tubulin in cultured DRG neurons treated with Bortezomib.
(§2) FIG. 7A-7D. Bortezomib induces delta-2-tubulin at the onset of axonal degeneration. (A) Representative immunofluorescence of D2 and βIII-tub staining in DRG neurons treated with 100 nM of Bortezomib for the indicated times. Bar, 50 μm. (B) Ratio analysis of D2/βIII-tubulin levels measured by immunofluorescence of fixed cells treated as in A. **, p≤0.01, ****, p≤0.0001 by t-test (unpaired, two-tailed). […] Data are mean values±SEM from 3 experiments. (D) Number of retraction bulbs per field in DRG neurons treated with 100 nM of Bortezomib for the indicated times. **, p≤0.01.
FIG. 12. (A) Immunoblot of D2 levels from whole cell lysates of adult DRG neurons (14 DIV) treated with increasing doses of Bortezomib for the indicated times. (B) IB of D2 levels in the MT pellet (P) and soluble tubulin (S) fractions isolated from adult DRG neurons (8 DIV) treated with 100 nM of Bortezomib for the indicated times.
as §1

[5] = system: DRG neurons; assay: Axonal degeneration (degeneration index) in cultured DRG neurons; type: cell-based; details: DRG neurons treated with 100 nM for the indicated times (FIG. 7C)
Description: as §2
FIG. 9A-9E. Delta-2-tubulin accumulation is sufficient to drive axonopathy. (A) Schematic of the enzymes involved in D2 generation. (B) Immunoblot of tubulin tyrosine ligase (TTL), D2 and tyrosinated (TYR) tubulin levels in adult DRG neurons (14 DIV) silenced of TTL expression at 7 DIV. (C) Representative immunofluorescence images of DRG neurons as in B. (D) Axonal degeneration and number of retraction bulbs per field in DRG neurons treated as in B. (E) Axonal degeneration in DRG neurons that overexpress D2-(PVLX-EGFP-D2Tub) or WT-tubulin (PVLX-EGFP-Tub). Data are mean values±SEM from 3 experiments. ***, p≤0.001; **, p≤0.01, *p≤0.05 by t-test (unpaired, two-tailed). Bar, […].
FIG. 14A-14D. […]
Peripheral neurons from patients suffering from CIPN were analyzed for delta-2-tubulin expression. […]

[6] = system: DRG neurons; assay: EGFP-EB3 analysis of microtubule dynamics in DRG neurons; type: cell-based; details: DRG neurons 7 DIV, 100 nM, prior to delta-2-tubulin induction (FIG. 8)
Description: FIG. 8. Bortezomib induces MT stability without affecting MT dynamics prior to D2 induction. EGFP-EB3 time course analysis of MT dynamics parameters in DRG neurons (7 days in vitro (DIV)) treated with 100 nM Bortezomib for the indicated times. Data were pulled from up to 300 comets and 12-15 neurites for each group and analyzed by one-way ANOVA, multiple comparison. (NS, non-significant).
(§3) Microtubule dynamics were analyzed in DRG neurons following bortezomib treatment. […] TTL binds αβ-tubulin dimer and catalyzes the post-translational addition of a tyrosine to the C-terminal end of detyrosinated α-tubulin. Song et al., J. of Bio. Chem. 290(23):14765-14775 (2015).

[7] = system: tubulin tyrosine ligase (TTL); assay: Immunoblot of tubulin tyrosine ligase (TTL) and D2 levels in adult DRG neurons; type: cell-based; details: adult DRG neurons 14 DIV, 100 nM (FIG. 11)
Description: FIG. 11. Immunoblot of tubulin tyrosine ligase (TTL) and D2 levels in adult DRG neurons (14 DIV) treated with 100 nM Bortezomib.
as §3

[8] = system: DRG neurons; assay: Mitochondrial motility in DRG neurons (mito-DsRed kymographs); type: cell-based; details: 100 nM for 24 hr (FIG. 15D)
Description: FIG. 15A-15F. D2 accumulation is necessary and sufficient to affect mitochondria motility. (A) Representative kymographs of mitochondrial motility in DRG neurons (7 DIV) infected for 4 days with PVLX-EGFP-D2- or WT-Tubulin lentivirus prior to 72 hr infection with mito-DsRed lentivirus. (B) Quantification of the percentage of moving mitochondria as in A. Videos (10 s/frame for 30 min). (C, F) Percentage of different mitochondria movement states, Dynamic Pause (DP), Stationary (STA), Anterograde Running (AR), Retrograde Running (RR) (1 s/frame for 3 min, C), (10 s/frame for 30 min, F). (D) Representative kymographs of mitochondrial motility in DRG neurons (7 DIV) infected for 4 days with ShCCP1 or shControl lentivirus prior 72 hr infection with mito-DsRed lentivirus followed by Bortezomib treatment (100 nM for 24 hr). (E) Quantification of the percentage of moving mitochondria as in D. Videos (10 s/frame for 30 min). […]
To determine the effect bortezomib and delta-2 tubulin accumulation have on mitochondrial motility, DRG neurons were transduced with lentivirus to express wild-type tubulin or delta-2 tubulin. […] Expression of delta-2 tubulin affected every state of mitochondrial movement analyzed except for the stationary state (STA) (FIG. 15C). The effect of CCP1 knockdown on mitochondrial movement in the presence of bortezomib was also analyzed.

SMILES	animal behavior and nerve function (dynamic test, plantar test, electrophysiological tests) [1]	delta-2-tubulin in proprioceptive and nociceptive DRG neurons ([2]; DRG L4-L5 of rats treated for 24 hr (FIG. 13))	delta-2-tubulin in DRG cell bodies, compared to βIII-tubulin and control ([2]; acute treatment, single i.v. 0.2 mg/kg, 24 hr (FIG. 3))	delta-2-tubulin in DRG cell bodies, compared to βIII-tubulin and control ([2]; chronic treatment, 0.2 mg/kg 3x week for 8 weeks (FIG. 2))	post-translation modifications of α-tubulin, e.g., acetylation, in DRGs and SNs ([2]; rats acutely treated, single i.v. 0.2 mg/kg, 24 hr (FIG. 3))	post-translation modifications of α-tubulin, e.g., acetylation, in DRGs and SNs ([2]; rats chronically treated, 0.2 mg/kg 3x week for 8 weeks (FIG. 2))	delta-2-tubulin expression in peripheral neurons, e.g., sural nerve [3]	delta-2-tubulin induction relative to axonal degeneration (degeneration index) ([4]; DRG neurons, 100 nM, time course (FIG. 7))	delta-2-tubulin expression [4]	axonopathy [5]	microtubule dynamics (rescue/nucleation frequency, catastrophe frequency, comet density, growth rate) [6]	TTL expression, western blot [7]	delta-2-tubulin, western blot [7]	movement of mitochondria [8]	delta-2-tubulin in DRG neurons compared to control ([2]; unrelated CIPN drugs, acute (FIG. 4))
CC(C)C[C@H](NC(=O)[C@H](Cc1ccccc1)NC(=O)c1cnccn1)B(O)O [bortezomib]	affected animal behavior and nerve function	accumulate delta-2-tubulin	increased	increased	reduced	reduced	induced delta-2-tubulin expression	induced delta-2-tubulin at the onset of axonal degeneration	increase in delta-2-tubulin expression	Time dependent increase of axonopathy	does not affect microtubule dynamics	reduction of TTL expression	accumulation of delta-2-tubulin	greatly affected the movement of mitochondria	
CC(=O)O[C@H]1C(=O)[C@@]2(C)[C@H]([C@H](OC(=O)c3ccccc3)[C@]3(O)C[C@H](OC(=O)[C@H](O)[C@@H](NC(=O)c4ccccc4)c4ccccc4)C(C)=C1C3(C)C)[C@]1(OC(C)=O)CO[C@@H]1C[C@@H]2O [paclitaxel]									increase in delta-2-tubulin expression						acutely accumulated delta-2-tubulin
